Calls of active or inactive are those of the source. The rule behind the calls is not given here. Non-standard residues stand in square brackets, D forms with d. Residues, ends and D or L forms follow the SMILES beside them. NMeI = CC[C@H](C)[C@H](NC)C(=O)O; Hica(2S) = CC(C)C[C@H](O)C(=O)O; NMeL = CN[C@@H](CC(C)C)C(=O)O; NMeV = CN[C@H](C(=O)O)C(C)C; βAla = NCCC(=O)O
Legend:
Sordaria fimicola [1] = test: Antifungal activity against Sordaria fimicola NRRL 6459 at 200 ug/disk by standard disk assay; assay type: functional, organism-based
Bacillus subtilis = test: Antibacterial activity against Bacillus subtilis ATCC 6051 at 200 ug/disk by standard disk assay; assay type: functional; conditions: read-out: IZ
Ascobolus [2] = test: Antifungal activity against Ascobolus furfuraceus NRRL 6460 at 200 ug/disk by standard disk assay; assay type: functional, organism-based
Sordaria fimicola [3] = test: Antifungal activity against Sordaria fimicola NRRL 6459 assessed as inhibition of radial growth at 200 ug/disk by standard disk assay; assay type: functional
Ascobolus [4] = test: Antifungal activity against Ascobolus furfuraceus NRRL 6460 assessed as inhibition of radial growth at 200 ug/disk by standard disk assay; assay type: functional
Candida albicans = test: Antifungal activity against Candida albicans ATCC 90029 at 200 ug/disk by standard disk assay; assay type: functional; conditions: read-out: IZ
Staphylococcus aureus = test: Antibacterial activity against Staphylococcus aureus ATCC 29213 at 200 ug/disk by standard disk assay; assay type: functional; conditions: read-out: IZ
Helicoverpa zea = test: Antiinsectan activity against Helicoverpa zea larvae at 100 ppm dietary level by dietary assay; assay type: functional, organism-based

| Compound | inhibition zone (IZ) (Sordaria fimicola [1]) | zone of inhibition at 200 µg/disc (Bacillus subtilis) | inhibition zone (IZ) (Ascobolus [2]) | inhibition at 200 µg/disc (Sordaria fimicola [3]) | inhibition at 200 µg/disc (Ascobolus [4]) | zone of inhibition at 200 µg/disc (Candida albicans) | zone of inhibition at 200 µg/disc (Staphylococcus aureus) | Activity (Helicoverpa zea) |
| --- | --- | --- | --- | --- | --- | --- | --- | --- |
| CC(C)C[C@@H]1OC(=O)CCNC(=O)[C@H](CC(C)C)N(C)C(=O)[C@H](C(C)C)N(C)C(=O)[C@H](Cc2ccccc2)NC(=O)[C@@H]2CCCN2C1=O [PSEUDODESTRUXIN B] (cyclo(F[NMeV][NMeL][βAla][Hica(2S)]P)) | inactive | 8 mm | inactive |  |  |  |  |  |
| CC(/C=C/[C@@]1(C)[C@H](C)CCC(=O)[C@@H]1C)=C\Cc1c(O)c(Cl)c(C)c(C=O)c1O [ASCOCHLORIN] |  | 12 mm |  | 62% | 33% | 24 mm | 11 mm |  |
| CC[C@H](C)[C@H]1C(=O)N(C)[C@@H](CC(C)C)C(=O)NCCC(=O)O[C@@H](CC(C)C)C(=O)N2CCC[C@H]2C(=O)N[C@@H](Cc2ccccc2)C(=O)N1C [PSEUDODESTRUXIN A] (cyclo(F[NMeI][NMeL][βAla][Hica(2S)]P)) | inactive | 8 mm | inactive |  |  |  |  | inactive |

Reference: ChEMBL document CHEMBL1150827, “Pseudodestruxins A and B: new cyclic depsipeptides from the coprophilous fungus Nigrosabulum globosum” (2001)
